Assay results from US20090325902A1, “HETEROCYCLIC UREA DERIVATIVES AND METHODS OF USE THEREOF” (ASTRAZENECA AB, priority 2008, published 2009).
Converted amounts (≈) assume the structure as drawn.

What was measured:
E. coli GyrB ATPase = E. coli GyrB ATPase (Escherichia coli, UniProt P0AES6); assay: E. coli GyrB ATPase inhibition (ammonium molybdate/malachite green phosphate detection); type: biochemical
Method: E. coli GyrB ATPase Inhibition Activity: Compounds can be tested for inhibition of E. coli GyrB ATPase activity using an ammonium molybdate/malachite green-based phosphate detection assay (Lanzetta, P. A., L. J. Alvarez, P. S. Reinach, and O. A. Candia, 1979, 100: 95-97). Assays can be performed in multiwell plates in 30 μl reactions containing: 50 mM Hepes buffer pH 7.5, 75 mM ammonium acetate, 8.0 mM magnesium chloride, 0.5 mM ethylenediaminetetraacetic acid, 5% glycerol, 1 mM 1,4-Dithio-DL-threitol, 200 nM bovine serum albumin, 1.6 μg/ml sheared salmon sperm DNA, 400 pM E. coli GyrA, 400 pM E. coli GyrB, 250 μM ATP, and compound in dimethylsulfoxide. Reactions can be quenched with 30 μl of ammonium molybdate/malachite green detection reagent containing 1.2 mM malachite green hydrochloride, 8.5 mM ammonium molybdate tetrahydrate, and 1 M hydrochloric acid. Plates can be read in an absorbance plate reader at 650 nm and percent inhibition values are calculated using dimethylsulfoxide (2%)-containing reactions as 0% inhibition and EDTA-containing (2.4 μM) reactions as 100% inhibition controls. An IC50 measurement of compound potency for each compound can be determined from reactions performed in the presence of 10 different compound concentrations.

[1] = molecular target: E. coli Topoisomerase IV ATPase (Escherichia coli, UniProt P20083); assay: E. coli Topoisomerase IV ATPase inhibition; type: biochemical
Method: E. coli Topoisomerase IV ATPase Inhibition Activity: Compounds can be tested for inhibition of E. coli topoisomerase IV ATPase activity as described above for E. coli GyrB except the 30 μl reactions contained the following: 20 mM TRIS buffer pH 8, 50 mM ammonium acetate, 8 mM magnesium chloride, 5% glycerol, 5 mM 1,4-Dithio-DL-threitol, 0.005% Brij-35, 5 μg/ml sheared salmon sperm DNA, 500 pM E. coli ParC, 500 pM E. coli ParE, 160 μM ATP, and compound in dimethylsulfoxide. An IC50 measurement of compound potency for each compound can be determined from reactions performed in the presence of 10 different compound concentrations.

S. aureus GyrB ATPase = S. aureus GyrB ATPase (Staphylococcus aureus, UniProt P0A0K8); assay: S. aureus GyrB ATPase inhibition (ammonium molybdate/malachite green phosphate detection); type: biochemical; conditions: compound concentration of 1 μM; read-out: percent inhibition of S. aureus GyrB ATPase
Method: S. aureus GyrB ATPase Inhibition Activity: Compounds may be tested for inhibition of S. aureus GyrB ATPase activity using an ammonium molybdate/malachite green-based phosphate detection assay (Lanzetta, P. A., L. J. Alvarez, P. S. Reinach, and O. A. Candia, 1979, 100: 95-97). Assays can be performed in multiwell plates in 30 μl reactions containing: 50 mM Hepes buffer pH 7.5, 75 mM ammonium acetate, 8.0 mM magnesium chloride, 0.5 mM ethylenediaminetetraacetic acid, 5% glycerol, 1.0 mM 1,4-Dithio-DL-threitol, 200 nM bovine serum albumin, 1.0 μg/ml sheared salmon sperm DNA, 250 pM E. coli GyrA, 250 pM S. aureus GyrB, 250 μM ATP, and compound in dimethylsulfoxide. Reactions can be quenched with 30 μl of ammonium molybdate/malachite green detection reagent containing 1.2 mM malachite green hydrochloride, 8.5 mM ammonium molybdate tetrahydrate, and 1 M hydrochloric acid. Plates can be read in an absorbance plate reader at 650 nm and percent inhibition values can be calculated using dimethylsulfoxide (2%)-containing reactions as 0% inhibition and EDTA-containing ([…]) reactions as 100% inhibition controls. An IC50 measurement of compound potency for each compound can be determined from reactions performed in the presence of 10 different compound concentrations.

Streptococcus pneumoniae = assay: Bacterial susceptibility testing in liquid media (MIC); type: cell-based; conditions: lowest drug concentration able to reduce growth by 80% or more, read-out: MIC against Streptococcus pneumoniae
From the text: Compounds may be tested for antimicrobial activity by susceptibility testing in liquid media. Compounds may be dissolved in dimethylsulfoxide and tested in 10 doubling dilutions in the susceptibility assays. The organisms used in the assay may be grown overnight on suitable agar media and then suspended in a liquid medium appropriate for the growth of the organism. The suspension can be a 0.5 McFarland and a further 1 in 10 dilution can be made into the same liquid medium to prepare the final organism suspension in 100 μL. Plates can be incubated under appropriate conditions at 37° C. for 24 hrs prior to reading. The Minimum Inhibitory Concentration (MIC) may be determined as the lowest drug concentration able to reduce growth by 80% or more.

E. coli Topoisomerase IV ATPase, sequence (P0AFI2 whole entry): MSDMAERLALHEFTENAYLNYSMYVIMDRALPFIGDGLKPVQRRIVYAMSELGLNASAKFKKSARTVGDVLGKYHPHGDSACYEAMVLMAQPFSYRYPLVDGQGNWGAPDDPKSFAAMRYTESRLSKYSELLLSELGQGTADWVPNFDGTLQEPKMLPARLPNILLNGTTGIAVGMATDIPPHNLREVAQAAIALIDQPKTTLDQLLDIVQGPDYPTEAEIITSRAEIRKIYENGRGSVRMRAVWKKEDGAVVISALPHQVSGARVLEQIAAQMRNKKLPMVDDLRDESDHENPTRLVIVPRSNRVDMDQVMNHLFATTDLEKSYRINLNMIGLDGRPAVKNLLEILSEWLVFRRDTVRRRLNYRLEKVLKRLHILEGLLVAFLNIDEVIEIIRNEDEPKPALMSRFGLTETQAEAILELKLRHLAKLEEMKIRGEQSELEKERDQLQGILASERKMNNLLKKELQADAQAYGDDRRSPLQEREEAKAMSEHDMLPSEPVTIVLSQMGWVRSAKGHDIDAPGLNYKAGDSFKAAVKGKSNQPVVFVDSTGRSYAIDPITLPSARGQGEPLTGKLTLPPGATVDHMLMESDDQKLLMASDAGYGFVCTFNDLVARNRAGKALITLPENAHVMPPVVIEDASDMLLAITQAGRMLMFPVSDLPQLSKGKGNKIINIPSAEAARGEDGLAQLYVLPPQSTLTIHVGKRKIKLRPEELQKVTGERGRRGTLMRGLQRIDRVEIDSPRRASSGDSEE
E. coli Topoisomerase IV ATPase, sequence (P20083 whole entry): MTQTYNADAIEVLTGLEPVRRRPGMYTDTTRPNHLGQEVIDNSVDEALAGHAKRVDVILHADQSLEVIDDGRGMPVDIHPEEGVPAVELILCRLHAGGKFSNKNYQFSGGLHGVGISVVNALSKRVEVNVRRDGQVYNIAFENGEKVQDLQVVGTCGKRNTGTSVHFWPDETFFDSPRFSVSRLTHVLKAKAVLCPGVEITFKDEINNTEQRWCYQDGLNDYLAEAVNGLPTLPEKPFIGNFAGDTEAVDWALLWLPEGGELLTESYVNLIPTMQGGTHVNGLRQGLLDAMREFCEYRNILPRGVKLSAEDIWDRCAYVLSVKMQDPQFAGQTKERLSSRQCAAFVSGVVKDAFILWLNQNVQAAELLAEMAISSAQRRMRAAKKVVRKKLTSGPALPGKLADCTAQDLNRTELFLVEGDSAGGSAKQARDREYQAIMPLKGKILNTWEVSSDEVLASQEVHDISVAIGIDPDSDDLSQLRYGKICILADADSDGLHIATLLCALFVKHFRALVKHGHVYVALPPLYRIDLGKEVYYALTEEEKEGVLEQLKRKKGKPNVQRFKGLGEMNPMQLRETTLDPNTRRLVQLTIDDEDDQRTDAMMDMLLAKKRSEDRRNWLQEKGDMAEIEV
S. aureus GyrB ATPase, sequence (P0AES4 whole entry): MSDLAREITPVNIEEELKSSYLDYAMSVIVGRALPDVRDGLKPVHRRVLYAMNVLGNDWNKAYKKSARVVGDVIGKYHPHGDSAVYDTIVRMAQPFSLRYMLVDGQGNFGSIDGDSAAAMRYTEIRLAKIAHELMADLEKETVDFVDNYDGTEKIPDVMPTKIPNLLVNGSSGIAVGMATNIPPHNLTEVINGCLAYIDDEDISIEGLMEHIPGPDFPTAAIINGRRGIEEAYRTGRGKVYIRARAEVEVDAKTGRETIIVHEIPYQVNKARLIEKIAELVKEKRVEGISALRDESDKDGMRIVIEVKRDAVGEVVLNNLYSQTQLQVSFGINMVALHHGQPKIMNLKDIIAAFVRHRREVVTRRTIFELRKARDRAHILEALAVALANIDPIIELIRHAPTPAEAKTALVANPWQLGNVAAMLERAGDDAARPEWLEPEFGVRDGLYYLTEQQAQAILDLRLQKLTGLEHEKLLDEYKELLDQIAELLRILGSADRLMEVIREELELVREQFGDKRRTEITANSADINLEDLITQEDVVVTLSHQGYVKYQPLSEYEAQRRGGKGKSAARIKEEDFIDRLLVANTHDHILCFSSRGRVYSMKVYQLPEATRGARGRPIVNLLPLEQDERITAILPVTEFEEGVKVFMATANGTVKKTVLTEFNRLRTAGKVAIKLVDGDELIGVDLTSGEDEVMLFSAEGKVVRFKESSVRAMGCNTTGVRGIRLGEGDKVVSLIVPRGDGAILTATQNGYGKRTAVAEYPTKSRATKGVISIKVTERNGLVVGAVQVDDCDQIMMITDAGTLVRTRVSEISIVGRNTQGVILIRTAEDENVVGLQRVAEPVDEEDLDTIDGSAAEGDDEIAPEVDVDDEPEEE
S. aureus GyrB ATPase, sequence (P0A0K8 whole entry): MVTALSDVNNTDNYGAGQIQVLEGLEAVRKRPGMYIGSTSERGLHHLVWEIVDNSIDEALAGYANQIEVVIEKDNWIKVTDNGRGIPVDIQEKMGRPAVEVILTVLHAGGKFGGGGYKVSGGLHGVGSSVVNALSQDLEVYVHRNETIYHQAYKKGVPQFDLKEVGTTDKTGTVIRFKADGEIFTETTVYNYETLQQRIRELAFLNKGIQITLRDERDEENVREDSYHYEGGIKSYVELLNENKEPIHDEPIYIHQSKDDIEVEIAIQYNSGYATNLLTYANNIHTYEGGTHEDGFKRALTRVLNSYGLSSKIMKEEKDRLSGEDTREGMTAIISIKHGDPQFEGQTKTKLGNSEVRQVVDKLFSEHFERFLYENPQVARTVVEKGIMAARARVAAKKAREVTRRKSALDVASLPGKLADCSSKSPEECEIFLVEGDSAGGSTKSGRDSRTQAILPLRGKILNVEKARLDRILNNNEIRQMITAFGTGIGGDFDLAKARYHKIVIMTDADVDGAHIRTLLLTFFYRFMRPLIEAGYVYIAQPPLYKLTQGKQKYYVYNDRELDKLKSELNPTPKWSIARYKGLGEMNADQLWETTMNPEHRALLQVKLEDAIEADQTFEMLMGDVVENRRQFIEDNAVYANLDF

CCNC(=O)Nc1cc(C#Cc2ccccn2)c(-c2cncc(-c3n[nH]c(=O)o3)c2)cn1 [Example 1, 1-ethyl-3-(5′-(5-oxo-4,5-dihydro-1,3,4-oxadiazol-2-yl)-4-(pyridin-2-ylethynyl)-3,3′-bipyridin-6-yl)urea]
IC50 (E. coli GyrB ATPase): < 200 µM
IC50 [1]: < 200 µM
inhibition at 1 µM (S. aureus GyrB ATPase): 102%
MIC (Streptococcus pneumoniae): 0.2 µM (≈ 0.0855 µg/mL)
